Reference: patent US9409893B2, “Heteroaryl derivatives and uses thereof” (Jacobus Pharmaceutical Company, Inc., priority 2012, dated 2016)
Marks after values point to notes of the source that are not given here.

Tests used:
P. falciparum strain W2 = experiment: [3H]-hypoxanthine growth inhibition assay, P. falciparum W2; format: cell-based; conditions: Plasmodium falciparum; P. falciparum W2 (resistant to chloroquine and pyrimethamine), [3H]-hypoxanthine incorporation; read-out: W2 IC50
Procedure, shortened: (§1)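 Parasites cultured in human O Rh+ RBCs in RPMI-1640-LPLF (low PABA and folic acid) with 10% human plasma, pH 6.9, 37° C, 5% O2/5% CO2/90% N2. Sorbitol-synchronised ring-stage cultures started at 1% parasitaemia; growth measured as [3H]-hypoxanthine incorporation in hypoxanthine-free medium. Compound stocks 1 mM in DMSO.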

[1] = system: Plasmodium berghei (KBG-173 strain); experiment: Plasmodium berghei assay in vivo (modified Thompson Test) in CD-1 mice; conditions: bid on days 3, 4 and 5; for Average Days Survival: 31 day experiment
Experimental: In vivo antimalarial activity was tested in male or female Charles River CD-1 mice that were 4-5 weeks old and weighed 20-25 g They were housed in groups of 3 or 4 in standard plastic cages with wire tops, Bed-o-Cob® bedding, 12 hr/day of light, and maintained at 75° F. They were fed a standard Ralston Purina mouse chow and the cages and bottles were changed twice a week. Test compounds were ground in a mortar and pestle and diluted with enough vehicle to give a volume of 10 mL/kg of mouse weight. The oral doses were prepared in 0.5% hydroxyethylcellulose (Union Carbide Corp. WP 4400)/0.1% Tween-80 (Fisher Scientific T164-500). The amount of drug was calculated on the free base weight. The mice were infected intraperitoneally on day 0 with 5×10^4 erythrocytes parasitized with Plasmodium berghei (KBG-173 strain) from a donor mouse having a parasitemia between 5-10%. On days 3, 4 and 5 the test compounds were administered bid, spaced 6 hr apart, by oral gavage to the mice. Activity was measured by survival, with full activity defined as all animals living at day 31. Partial activity is defined as days of increased survival versus the infected non-treated controls. This in vivo model is a modification of the Thompson Test. For further description see Ager, A. L, Jr. Rodent Malaria Models. In Handbook of Experimental Pharmacology: Antimalarial Drugs. 1. 68/1; Peters, W., Richards, W. H. G., Eds.: Springer-Verlag: Berlin, 1984, pp. 231-33.

P. falciparum strain D6 = experiment: [3H]-hypoxanthine growth inhibition assay, P. falciparum D6; format: cell-based; conditions: Plasmodium falciparum; P. falciparum D6 (sensitive to chloroquine and pyrimethamine), [3H]-hypoxanthine incorporation; read-out: D6 IC50
Procedure, shortened: as §1

[2] = Plasmodium berghei, 744 h, 4 mg/kg/day oral, CD-1 mice infected with P. berghei, read-out: Number of mice alive at day 31 (converted)
[3] = Plasmodium berghei, 744 h, 8 mg/kg/day oral, CD-1 mice infected with P. berghei, read-out: Number of mice alive at day 31 (converted)
[4] = Plasmodium berghei, 744 h, 16 mg/kg/day oral, CD-1 mice infected with P. berghei, read-out: Number of mice alive at day 31 (converted)
[5] = Plasmodium berghei, 744 h, 32 mg/kg/day oral, CD-1 mice infected with P. berghei, read-out: Number of mice alive at day 31 (converted)
[6] = Plasmodium berghei, 744 h, 64 mg/kg/day oral, CD-1 mice infected with P. berghei, read-out: Number of mice alive at day 31 (converted)

## CC(C)(C)NCc1cc(C(C)(C)C)cc(-c2ccc(C(F)(F)F)nc2)c1O.Cl [Example 1, 4-(tert-Butyl)-2-((tert-butylamino)methyl)-6-(6-(trifluoromethyl)pyridin-3-yl)phenol hydrochloride]
P. falciparum strain W2
  IC50: 4 nM
[1]; 2 mg/kg/day oral
  Average Days Survival: >27 days
[1]; 4 mg/kg/day oral
  Average Days Survival: >31* days
[1]; 8 mg/kg/day oral
  Average Days Survival: >31* days
[1]; 16 mg/kg/day oral
  Average Days Survival: >31* days
[1]; 32 mg/kg/day oral
  Average Days Survival: >31* days
[1]; 64 mg/kg/day oral
  Average Days Survival: >31* days
[1]; Plasmodium berghei, 744 h, 2 mg/kg/day oral, CD-1 mice infected with P. berghei, read-out: Number of mice alive at day 31 (converted)
  responders at 2 mg/kg: 71.4%
[1]; [2]
  responders at 4 mg/kg: 100%
[1]; [3]
  responders at 8 mg/kg: 100%
[1]; [4]
  responders at 16 mg/kg: 100%
[1]; [5]
  responders at 32 mg/kg: 100%
[1]; [6]
  responders at 64 mg/kg: 100%
P. falciparum strain D6
  IC50: 13 nM

## CC(C)(C)NCc1cc(C(C)(C)C)cc(-c2cnc(C(F)(F)F)nc2)c1O.Cl [Example 33, 4-(tert-Butyl)-2-((tert-butylamino)methyl)-6-(2-(trifluoromethyl)pyrimidin-5-yl)phenol hydrochloride]
P. falciparum strain W2
  IC50: 3 nM
[1]; 4 mg/kg/day oral
  Average Days Survival: >30 days
[1]; 8 mg/kg/day oral
  Average Days Survival: >31* days
[1]; 16 mg/kg/day oral
  Average Days Survival: >31* days
[1]; 32 mg/kg/day oral
  Average Days Survival: >31* days
[1]; 64 mg/kg/day oral
  Average Days Survival: >31* days
[1]; [2]
  responders at 4 mg/kg: 85.7%
[1]; [3]
  responders at 8 mg/kg: 100%
[1]; [4]
  responders at 16 mg/kg: 100%
[1]; [5]
  responders at 32 mg/kg: 100%
[1]; [6]
  responders at 64 mg/kg: 100%
P. falciparum strain D6
  IC50: 10 nM

## CC(C)(C)NCc1cc(C(C)(C)C)cc(-c2cnc(C(F)(F)F)c(F)c2)c1O.Cl [Example 34, 4-(tert-Butyl)-2-((tert-butylamino)methyl)-6-(5-fluoro-6-(trifluoromethyl)pyridin-3-yl)phenol hydrochloride]
P. falciparum strain W2
  IC50: 2 nM
[1]; 4 mg/kg/day oral
  Average Days Survival: >28 days
[1]; 8 mg/kg/day oral
  Average Days Survival: >31* days
[1]; 16 mg/kg/day oral
  Average Days Survival: >31* days
[1]; 32 mg/kg/day oral
  Average Days Survival: >31* days
[1]; 64 mg/kg/day oral
  Average Days Survival: >31* days
[1]; [2]
  responders at 4 mg/kg: 85.7%
[1]; [3]
  responders at 8 mg/kg: 100%
[1]; [4]
  responders at 16 mg/kg: 100%
[1]; [5]
  responders at 32 mg/kg: 100%
[1]; [6]
  responders at 64 mg/kg: 100%
P. falciparum strain D6
  IC50: 8 nM
